Data as given in ChEMBL document CHEMBL3734705, “Synthesis and in vitro cytotoxicity of novel C-12 substituted-14-deoxy-andrographolide derivatives as potent anti-cancer agents” (2015).

How the values were obtained:
SR [1] = assay: Cytotoxicity against human SR cells assessed as growth inhibition at 10 uM after 48 hrs by SRB assay; assay type: functional; details: read-out: GI
NCI-H322M = assay: Cytotoxicity against human NCI-H322M cells assessed as growth level at 10 uM after 48 hrs by SRB assay; assay type: functional
[2] = Cytotoxicity against human HCT116 cells assessed as growth level at 10 uM after 48 hrs by SRB assay; assay type: functional, HCT-116
786-0 = assay: Cytotoxicity against human 786-0 cells assessed as growth inhibition at 10 uM after 48 hrs by SRB assay; assay type: functional; details: 786-0, 48 h, read-out: GI
[3] = Cytotoxicity against human SKOV3 cells assessed as growth inhibition at 10 uM after 48 hrs by SRB assay; assay type: functional; details: SK-OV-3, 48 h, read-out: GI
MDA-MB-468 [4] = assay: Cytotoxicity against human MDA-MB-468 cells assessed as growth level at 10 uM after 48 hrs by SRB assay; assay type: functional
SR [5] = assay: Cytotoxicity against human SR cells assessed as growth level at 10 uM after 48 hrs by SRB assay; assay type: functional
[6] = Cytotoxicity against human HL-60(TB) cells assessed as growth level at 10 uM after 48 hrs by SRB assay; assay type: functional
U-251 = assay: Cytotoxicity against human U251 cells assessed as growth level at 10 uM after 48 hrs by SRB assay; assay type: functional
[7] = Cytotoxicity against human Hs578T cells assessed as growth level at 10 uM after 48 hrs by SRB assay; assay type: functional, Hs-578T
[8] = Cytotoxicity against human SW620 cells assessed as growth level at 10 uM after 48 hrs by SRB assay; assay type: functional, SW-620
SN12C [9] = assay: Cytotoxicity against human SN12C cells assessed as growth level at 10 uM after 48 hrs by SRB assay; assay type: functional
MDA-MB-231 = assay: Cytotoxicity against human MDA-MB-231 cells assessed as growth inhibition at 10 uM after 48 hrs by SRB assay; assay type: functional; details: MDA-MB-231, 48 h, read-out: GI
NCI-H23 [10] = assay: Cytotoxicity against human NCI-H23 cells assessed as growth level at 10 uM after 48 hrs by SRB assay; assay type: functional
NCI-H460 = assay: Cytotoxicity against human NCI-H460 cells assessed as growth level at 10 uM after 48 hrs by SRB assay; assay type: functional
[11] = Cytotoxicity against human NCI-ADR-RES cells assessed as growth inhibition at 10 uM after 48 hrs by SRB assay; assay type: functional; details: read-out: GI
MDA-MB-468 [12] = assay: Cytotoxicity against human MDA-MB-468 cells assessed as growth inhibition at 10 uM after 48 hrs by SRB assay; assay type: functional; details: MDA-MB-468, 48 h, read-out: GI
A549 = assay: Cytotoxicity against human A549 cells assessed as growth inhibition at 10 uM after 48 hrs by SRB assay; assay type: functional; details: A549, 48 h, read-out: GI
[13] = Cytotoxicity against human OVCAR4 cells assessed as growth level at 10 uM after 48 hrs by SRB assay; assay type: functional, OVCAR-4
NCI-H226 = assay: Cytotoxicity against human NCI-H226 cells assessed as growth inhibition at 10 uM after 48 hrs by SRB assay; assay type: functional; details: NCI-H226, 48 h, read-out: GI
MDA-MB-435 = assay: Cytotoxicity against human MDA-MB-435 cells assessed as growth level at 10 uM after 48 hrs by SRB assay; assay type: functional
[14] = Cytotoxicity against human SF295 cells assessed as growth inhibition at 10 uM after 48 hrs by SRB assay; assay type: functional; details: SF-295, 48 h, read-out: GI
KM12 = assay: Cytotoxicity against human KM12 cells assessed as growth inhibition at 10 uM after 48 hrs by SRB assay; assay type: functional; details: KM12, 48 h, read-out: GI
[15] = Cytotoxicity against human IGROV1 cells assessed as growth level at 10 uM after 48 hrs by SRB assay; assay type: functional, IGROV-1
[16] = Cytotoxicity against human DU145 cells assessed as growth inhibition at 10 uM after 48 hrs by SRB assay; assay type: functional; details: DU-145, 48 h, read-out: GI
[17] = Cytotoxicity against human UACC257 cells assessed as growth level at 10 uM after 48 hrs by SRB assay; assay type: functional, UACC-257
MCF7 = assay: Cytotoxicity against human MCF7 cells assessed as growth level at 10 uM after 48 hrs by SRB assay; assay type: functional
[18] = Cytotoxicity against human Hs578T cells assessed as growth inhibition at 10 uM after 48 hrs by SRB assay; assay type: functional; details: Hs-578T, read-out: GI
[19] = Cytotoxicity against human HOP62 cells assessed as growth level at 10 uM after 48 hrs by SRB assay; assay type: functional, HOP-62
[20] = Cytotoxicity against human SW620 cells assessed as growth inhibition at 10 uM after 48 hrs by SRB assay; assay type: functional; details: SW-620, 48 h, read-out: GI
[21] = Cytotoxicity against human HOP92 cells assessed as growth inhibition at 10 uM after 48 hrs by SRB assay; assay type: functional; details: HOP-92, 48 h, read-out: GI
[22] = Cytotoxicity against human IGROV1 cells assessed as growth inhibition at 10 uM after 48 hrs by SRB assay; assay type: functional; details: IGROV-1, 48 h, read-out: GI
[23] = Cytotoxicity against human SF268 cells assessed as growth level at 10 uM after 48 hrs by SRB assay; assay type: functional, SF-268
[24] = Cytotoxicity against human MOLT4 cells assessed as growth level at 10 uM after 48 hrs by SRB assay; assay type: functional, MOLT-4
[25] = Cytotoxicity against human LOXIMVI cells assessed as growth inhibition at 10 uM after 48 hrs by SRB assay; assay type: functional; details: LOX IMVI, read-out: GI
[26] = Cytotoxicity against human OVCAR8 cells assessed as growth inhibition at 10 uM after 48 hrs by SRB assay; assay type: functional; details: OVCAR-8, 48 h, read-out: GI
NCI-H23 [27] = assay: Cytotoxicity against human NCI-H23 cells assessed as growth inhibition at 10 uM after 48 hrs by SRB assay; assay type: functional; details: NCI-H23, 48 h, read-out: GI
SN12C [28] = assay: Cytotoxicity against human SN12C cells assessed as growth inhibition at 10 uM after 48 hrs by SRB assay; assay type: functional; details: read-out: GI
[29] = Cytotoxicity against human UO31 cells assessed as growth inhibition at 10 uM after 48 hrs by SRB assay; assay type: functional; details: UO-31, 48 h, read-out: GI
[30] = Cytotoxicity against human UACC257 cells assessed as growth inhibition at 10 uM after 48 hrs by SRB assay; assay type: functional; details: UACC-257, 48 h, read-out: GI
[31] = Cytotoxicity against human DU145 cells assessed as growth level at 10 uM after 48 hrs by SRB assay; assay type: functional, DU-145
[32] = Cytotoxicity against human UACC62 cells assessed as growth inhibition at 10 uM after 48 hrs by SRB assay; assay type: functional; details: UACC-62, 48 h, read-out: GI

## C=C1CC[C@@H]2[C@](C)(COC(C)=O)[C@H](OC(C)=O)CC[C@@]2(C)[C@@H]1CC(NCc1ccccc1)C1=CCOC1=O (mixture of isomers)
SR [1]
  inhibition of growth at 10 µM: 79.1%
NCI-H322M
  Activity: 77.01%
[2]
  Activity: 42.32%
786-0
  inhibition of growth at 10 µM: 28.6%
[3]
  inhibition of growth at 10 µM: 20.8%
MDA-MB-468 [4]
  Activity: 22.86%
SR [5]
  Activity: 20.89%
[6]
  Activity: -9.93%
U-251
  Activity: 47.58%
[7]
  Activity: 86.43%
[8]
  Activity: 47.31%
SN12C [9]
  Activity: 58.19%
MDA-MB-231
  inhibition of growth at 10 µM: 35.3%
NCI-H23 [10]
  Activity: 57.36%
NCI-H460
  Activity: 48.43%
[11]
  inhibition of growth at 10 µM: 76.5%
MDA-MB-468 [12]
  inhibition of growth at 10 µM: 77.1%
A549
  inhibition of growth at 10 µM: 50.8%
[13]
  Activity: 35.88%
NCI-H226
  inhibition of growth at 10 µM: 88.6%
MDA-MB-435
  Activity: 27.9%
[14]
  inhibition of growth at 10 µM: 36.1%
KM12
  inhibition of growth at 10 µM: 60.9%
[15]
  Activity: 62.9%
[16]
  inhibition of growth at 10 µM: 32.8%
[17]
  Activity: 32.81%
MCF7
  Activity: 29.82%
[18]
  inhibition of growth at 10 µM: 13.6%
[19]
  Activity: 89.01%
[20]
  inhibition of growth at 10 µM: 52.7%
[21]
  inhibition of growth at 10 µM: 58.3%
[22]
  inhibition of growth at 10 µM: 37.1%
[23]
  Activity: 62.15%
[24]
  Activity: -3.86%
[25]
  inhibition of growth at 10 µM: 55.4%
[26]
  inhibition of growth at 10 µM: 71.8%
NCI-H23 [27]
  inhibition of growth at 10 µM: 42.6%
SN12C [28]
  inhibition of growth at 10 µM: 41.8%
[29]
  inhibition of growth at 10 µM: 70.9%
[30]
  inhibition of growth at 10 µM: 67.2%
[31]
  Activity: 67.16%
[32]
  inhibition of growth at 10 µM: 61.2%
